Reference: a compilation of properties of binary mixtures (doi:10.1016/j.jct.2008.09.001)

Experiment: xn = mol fraction of the nth substance listed
Conditions: 101.3 kPa

CCCCCCCC[n+]1ccccc1.F[B-](F)(F)F + O
viscosity [mPa·s]
Conditions | x2 = 0 | x2 = 0.1 | x2 = 0.184 | x2 = 0.324 | x2 = 0.477 | x2 = 0.562 | x2 = 0.67 | x2 = 0.758 | x2 = 0.783
283.15 K | 640 | 404 | 261 | 161.4 | 116.4 | 63.8 | 65.55 | 51.8 | 54.27
288.15 K | – | – | – | – | – | 49.84 | – | – | 38.63
293.15 K | 320 | – | – | – | 69.9 | 39.6 | 40.42 | 28.74 | 29.21
298.15 K | 234 | 159.1 | 112.3 | 72 | 55.07 | 31.77 | – | – | 22.73
303.15 K | 171.9 | 122.5 | 86 | 57.88 | 44.37 | 26.47 | 26.82 | 19.17 | 18.09
308.15 K | – | 96.2 | 68.3 | 47.09 | 36.11 | – | 22.27 | 15.97 | –
313.15 K | 105.7 | 71.5 | 54.93 | 38.75 | 30.19 | – | – | 13.56 | 12.78
318.15 K | – | 57.41 | 44.98 | – | 25.23 | 16.88 | 15.98 | 11.52 | 11.08
323.15 K | 64.89 | 46.73 | 37.06 | – | 21.39 | – | 13.65 | 9.95 | 9.39
328.15 K | 53.52 | – | – | 23.23 | 18.15 | 12.05 | 11.88 | – | 8.2
333.15 K | – | – | – | 19.92 | 15.84 | 10.61 | 10.38 | – | 7.17
338.15 K | 38.1 | 27.06 | 22.38 | 17.32 | 13.44 | – | – | 6.75 | 6.31
343.15 K | 32.38 | 23.06 | 19.25 | – | 11.58 | 8.15 | – | 5.99 | 5.58
348.15 K | – | 19.83 | 16.71 | 13.13 | – | 7.17 | 7.19 | 5.29 | 4.97
353.15 K | 24.05 | – | – | – | – | – | – | – | –

CCCC[n+]1ccccc1.F[B-](F)(F)F + O
viscosity [mPa·s]
Conditions | x2 = 0 | x2 = 0.11 | x2 = 0.263 | x2 = 0.391 | x2 = 0.414 | x2 = 0.549 | x2 = 0.637 | x2 = 0.724 | x2 = 0.856
283.15 K | 464 | 211 | – | 44.9 | 41.27 | 22.77 | – | – | 5.53
288.15 K | 313 | – | 60.2 | – | 32.98 | 18.49 | – | – | 4.58
293.15 K | 223 | 115.6 | 47.4 | 29.05 | 26.81 | 15.37 | 10.82 | 7.61 | 3.88
298.15 K | 163.3 | 88.1 | 38.1 | 23.97 | 22.21 | 12.99 | 9.16 | – | 3.36
303.15 K | 123 | – | 31.12 | 20.01 | 18.63 | – | 8 | 5.65 | 2.94
308.15 K | 94.2 | 53.4 | 25.87 | 16.93 | 15.81 | 9.61 | 7.01 | 4.92 | 2.6
313.15 K | 70.3 | 43.2 | 21.69 | 14.51 | 13.58 | – | 6.13 | – | 2.32
318.15 K | 55.8 | 35.5 | 18.48 | 12.53 | 11.77 | 7.41 | 5.43 | 3.85 | 2.09
323.15 K | 45.1 | 29.49 | 15.87 | 10.93 | 10.22 | 6.57 | 4.78 | 3.46 | 1.9
328.15 K | 37.1 | – | 13.77 | 9.58 | 9.06 | 5.86 | 4.29 | – | 1.74
333.15 K | 30.9 | 21.18 | 12.04 | 8.6 | – | 5.19 | 3.87 | 2.82 | 1.61
338.15 K | 26.01 | 18.21 | 10.57 | 7.71 | 7.17 | 4.68 | – | 2.58 | 1.5
343.15 K | 22.17 | – | – | – | 6.37 | 4.24 | 3.22 | 2.37 | 1.4
353.15 K | 15.84 | – | – | – | – | – | – | – | –
